The record followed here is patent publication US20240376099A1, “COMPOUNDS AND COMPOSITIONS AS INHIBITORS OF ENDOSOMAL TOLL-LIKE RECEPTORS” (Novartis AG, priority 2016, published 2024).

A value given as a limit tells only on which side of the number the result lay.

Broadly, the IC50 is the concentration that gives 50% inhibition.

The target of the test is T1, TLR9 (Homo sapiens, UniProt Q9NR96).
T1 construct: Fresh blood was collected from normal human donors; endogenous in cells; host or cells: human PBMCs from fresh donor blood
T1 sequence (Q9NR96 26-1032): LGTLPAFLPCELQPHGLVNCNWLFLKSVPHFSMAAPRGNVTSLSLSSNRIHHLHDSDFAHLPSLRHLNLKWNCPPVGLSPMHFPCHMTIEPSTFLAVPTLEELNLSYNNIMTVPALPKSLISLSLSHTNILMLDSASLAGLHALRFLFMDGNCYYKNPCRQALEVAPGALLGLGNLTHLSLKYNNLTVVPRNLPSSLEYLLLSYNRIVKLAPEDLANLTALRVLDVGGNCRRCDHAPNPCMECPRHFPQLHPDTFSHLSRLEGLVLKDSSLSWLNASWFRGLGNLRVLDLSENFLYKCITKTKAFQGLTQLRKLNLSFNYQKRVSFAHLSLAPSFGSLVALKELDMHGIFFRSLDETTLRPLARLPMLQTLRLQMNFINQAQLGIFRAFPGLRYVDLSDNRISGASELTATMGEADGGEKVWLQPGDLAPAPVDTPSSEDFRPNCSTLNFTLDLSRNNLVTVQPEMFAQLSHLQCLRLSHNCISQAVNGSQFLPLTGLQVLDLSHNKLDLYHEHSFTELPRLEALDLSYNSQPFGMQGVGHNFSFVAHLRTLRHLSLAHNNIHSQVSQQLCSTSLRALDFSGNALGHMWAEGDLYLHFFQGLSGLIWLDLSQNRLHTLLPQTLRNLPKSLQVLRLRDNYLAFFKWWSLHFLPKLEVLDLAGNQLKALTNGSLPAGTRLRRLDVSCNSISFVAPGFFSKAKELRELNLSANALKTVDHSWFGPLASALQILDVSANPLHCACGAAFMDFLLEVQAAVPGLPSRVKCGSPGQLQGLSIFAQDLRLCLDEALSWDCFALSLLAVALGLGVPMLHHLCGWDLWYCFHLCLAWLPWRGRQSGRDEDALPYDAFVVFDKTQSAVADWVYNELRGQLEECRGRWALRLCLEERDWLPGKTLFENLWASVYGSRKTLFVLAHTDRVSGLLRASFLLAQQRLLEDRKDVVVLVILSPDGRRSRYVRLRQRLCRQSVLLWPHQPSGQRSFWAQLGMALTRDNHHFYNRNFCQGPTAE
In words: huPBMC TLR9 Antagonist IFNα Assay. Format: cell-based. The conditions noted are these: human PBMCs stimulated with ODN2216 0.3 μM, 14-16 hrs; IFNα2b AlphaLISA read-out. The procedure, abridged:
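Human PBMCs from fresh donor blood (150,000 cells/well) stimulated 14–16 h at 37 °C with DOTAP-complexed ssRNA40 (final 1 μg/ml for TLR8, 10 μg/mL for TLR7) or ODN2216 (final 0.3 μM, TLR9), 0.25% DMSO, ten-point 1/3 compound dilutions. Supernatant IL-6 read by HTRF (TLR8); IFNα by IFNα2b AlphaLISA (TLR7/TLR9).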
For orientation: Bead proximity is the source of the signal in Alpha formats.
For `Cc1cc(N2CCc3c(c(C)nn3CC34CCC(NCC5CCC5)(CC3)CO4)C2)c2cnn(C)c2n1` [compound 112, N-(cyclobutylmethyl)-1-((5-(1,6-dimethyl-1H-pyrazolo[3,4-b]pyridin-4-yl)-3-methyl-4,5,6,7-tetrahydro-1H-pyrazolo[4,3-c]pyridin-1-yl)methyl)-2-oxabicyclo[2.2.2]octan-4-amine], the half-inhibitory concentration (IC50) was found to be 1190 nM.

For the compound `CCNC12CCC(Cn3nc(C)c4c3CCN(c3ccnc(-c5ccccc5)c3)C4)(CC1)CC2` [compound 127, N-ethyl-4-((3-methyl-5-(2-phenylpyridin-4-yl)-4,5,6,7-tetrahydro-1H-pyrazolo[4,3-c]pyridin-1-yl)methyl)bicyclo[2.2.2]octan-1-amine], the IC50 was determined as 545 nM.

As to `Cc1c2c(nn1CC13CCC(N)(CC1)CC3)CCN(c1nc(N)nc3c1cnn3C)C2` [compound 14, 4-(2-((4-aminobicyclo[2.2.2]octan-1-yl)methyl)-3-methyl-6,7-dihydro-2H-pyrazolo[4,3-c]pyridin-5(4H)-yl)-1-methyl-1H-pyrazolo[3,4-d]pyrimidin-6-amine], the concentration for half-maximal inhibition (IC50) is more than 9090 nM.

For the compound `Cc1nn(CC23CCC(N)(CC2)CC3)c2c1CN(c1nc(N)nc3c1cnn3C)CC2` [compound 13, 4-(1-((4-aminobicyclo[2.2.2]octan-1-yl)methyl)-3-methyl-6,7-dihydro-1H-pyrazolo[4,3-c]pyridin-5(4H)-yl)-1-methyl-1H-pyrazolo[3,4-d]pyrimidin-6-amine], the 50% inhibitory concentration (IC50) amounted to 7750 nM.

In the case of `COCCNC12CCC(Cn3nc(C)c4c3CCN(c3nc(C)nc5c(C)nn(C)c35)C4)(CC1)CC2` [compound 18, N-(2-methoxyethyl)-4-((3-methyl-5-(1,3,5-trimethyl-1H-pyrazolo[4,3-d]pyrimidin-7-yl)-4,5,6,7-tetrahydro-1H-pyrazolo[4,3-c]pyridin-1-yl)methyl)bicyclo[2.2.2]octan-1-amine], the half-inhibitory concentration (IC50) is more than 10000 nM.

Turning to `Cc1nc(N2CCc3c(c(C)nn3CC34CCC(NCC5COC5)(CC3)CC4)C2)c2c(n1)c(C)nn2C` [compound 23, 4-((3-methyl-5-(1,3,5-trimethyl-1H-pyrazolo[4,3-c]pyrimidin-7-yl)-4,5,6,7-tetrahydro-1H-pyrazolo[4,3-c]pyridin-1-yl)methyl)-N-(oxetan-3-ylmethyl)bicyclo[2.2.2]octan-1-amine], the IC50 is more than 10000 nM.

Take `CCNCC(=O)NC12CCC(Cn3nc(C)c4c3CCN(c3nc(C)nc5c(C)nn(C)c35)C4)(CC1)CC2` [compound 22, 2-(ethylamino)-N-(4-((3-methyl-5-(1,3,5-trimethyl-1H-pyrazolo[4,3-c]pyrimidin-7-yl)-4,5,6,7-tetrahydro-1H-pyrazolo[4,3-c]pyridin-1-yl)methyl)bicyclo[2.2.2]octan-1-yl)acetamide]: the half-inhibitory concentration (IC50) is more than 10000 nM.

Consider `Cc1cc(N2CCc3c(c(C)nn3CC34CCC(NCC(=O)N5CCCC5)(CC3)CC4)C2)c2cnn(C)c2n1` [compound 106, 2-((4-((5-(1,6-dimethyl-1H-pyrazolo[3,4-b]pyridin-4-yl)-3-methyl-4,5,6,7-tetrahydro-1H-pyrazolo[4,3-c]pyridin-1-yl)methyl)bicyclo[2.2.2]octan-1-yl)amino)-1-(pyrrolidin-1-yl)ethanone], for which the half-inhibitory concentration (IC50) is 2660 nM.

Turning to `Cc1nc(N2CCc3c(c(C)nn3CC34CCC(N5CCCC5)(CC3)CC4)C2)c2c(n1)c(C)nn2C` [compound 17, 1,3,5-trimethyl-7-(3-methyl-1-((4-(pyrrolidin-1-yl)bicyclo[2.2.2]octan-1-yl)methyl)-6,7-dihydro-1H-pyrazolo[4,3-c]pyridin-5(4H)-yl)-1H-pyrazolo[4,3-d]pyrimidine], the IC50 was more than 10000 nM.

With `Cc1nc(N2CCc3c(c(C)nn3CC34CCC(N5CCCC5)(CC3)CC4)C2)c2cn[nH]c2n1` [compound 30, 6-methyl-4-(3-methyl-1-((4-(pyrrolidin-1-yl)bicyclo[2.2.2]octan-1-yl)methyl)-6,7-dihydro-1H-pyrazolo[4,3-c]pyridin-5(4H)-yl)-1H-pyrazolo[3,4-d]pyrimidine], the IC50 is more than 10000 nM.

Turning to `Cc1nc(N2CCc3c(c(C)nn3CC34CCC(NCC5(CO)COC5)(CC3)CC4)C2)c2c(n1)c(C)nn2C` [compound 31, (3-(((4-((3-methyl-5-(1,3,5-trimethyl-1H-pyrazolo[4,3-d]pyrimidin-7-yl)-4,5,6,7-tetrahydro-1H-pyrazolo[4,3-c]pyridin-1-yl)methyl)bicyclo[2.2.2]octan-1-yl)amino)methyl)oxetan-3-yl)methanol], the IC50 worked out at 2340 nM.

For the compound `Cc1cc(N2CCc3c(c(C)nn3CC34CCC(N5C[C@@H](C)O[C@H](C)C5)(CC3)CC4)C2)c2cnn(C)c2n1` [compound 113, (2R,6R)-4-(4-((5-(1,6-dimethyl-1H-pyrazolo[3,4-b]pyridin-4-yl)-3-methyl-4,5,6,7-tetrahydro-1H-pyrazolo[4,3-c]pyridin-1-yl)methyl)bicyclo[2.2.2]octan-1-yl)-2,6-dimethylmorpholine], the 50% inhibitory concentration (IC50) amounted to 1410 nM.

As to `CNCCC(=O)NC12CCC(Cn3nc(C)c4c3CCN(c3cc(C)nc5c3cnn5C)C4)(CC1)CC2` [compound 142, N-(4-((5-(1,6-dimethyl-1H-pyrazolo[3,4-b]pyridin-4-yl)-3-methyl-4,5,6,7-tetrahydro-1H-pyrazolo[4,3-c]pyridin-1-yl)methyl)bicyclo[2.2.2]octan-1-yl)-3-(methylamino)propanamide], the 50% inhibitory concentration (IC50) was more than 6590 nM.

With `Cc1cc(N2CCc3c(c(C)nn3CC34CCC(NCC5(CO)COC5)(CC3)CC4)C2)c2cnn(C)c2n1` [compound 137, (3-(((4-((5-(1,6-dimethyl-1H-pyrazolo[3,4-b]pyridin-4-yl)-3-methyl-4,5,6,7-tetrahydro-1H-pyrazolo[4,3-c]pyridin-1-yl)methyl)bicyclo[2.2.2]octan-1-yl)amino)methyl)oxetan-3-yl)methanol], the IC50 turned out to be 1280 nM.

Regarding `Cc1nc(N2CCc3c(c(C)nn3CC34CCC(N(C5CCC5)C5CCC5)(CC3)CC4)C2)c2c(n1)c(C)nn2C` [compound 28, N,N-dicyclobutyl-4-((3-methyl-5-(1,3,5-trimethyl-1H-pyrazolo[4,3-d]pyrimidin-7-yl)-4,5,6,7-tetrahydro-1H-pyrazolo[4,3-c]pyridin-1-yl)methyl)bicyclo[2.2.2]octan-1-amine], the half-inhibitory concentration (IC50) was more than 10000 nM.

`Cc1cc(N2CCc3c(c(C)nn3CC34CCC(NC(=O)CCN)(CC3)CC4)C2)c2cnn(C)c2n1` [compound 115, 3-amino-N-(4-((5-(1,6-dimethyl-1H-pyrazolo[3,4-b]pyridin-4-yl)-3-methyl-4,5,6,7-tetrahydro-1H-pyrazolo[4,3-c]pyridin-1-yl)methyl)bicyclo[2.2.2]octan-1-yl)propanamide]: the half-inhibitory concentration (IC50) was more than 10000 nM.

As to `CCn1ncc2c(N3CCc4c(c(C)nn4CC45CCC(NC(=O)[C@@H]6COCCN6)(CC4)CC5)C3)cc(C)nc21` [compound 141, (S)-N-(4-((5-(1-ethyl-6-methyl-1H-pyrazolo[3,4-b]pyridin-4-yl)-3-methyl-4,5,6,7-tetrahydro-1H-pyrazolo[4,3-c]pyridin-1-yl)methyl)bicyclo[2.2.2]octan-1-yl)morpholine-3-carboxamide], the IC50 is 5170 nM.

Turning to `Cc1cc(N2CCc3c(c(C)nn3CC34CCC(NC(=O)C5CNCCO5)(CC3)CC4)C2)c2cnn(C)c2n1` (centres unmarked) [compound 125, N-(4-((5-(1,6-dimethyl-1H-pyrazolo[3,4-b]pyridin-4-yl)-3-methyl-4,5,6,7-tetrahydro-1H-pyrazolo[4,3-c]pyridin-1-yl)methyl)bicyclo[2.2.2]octan-1-yl)morpholine-2-carboxamide], the IC50 amounted to 909 nM.

In the case of `[2H]C([2H])([2H])N(CC(=O)NC12CCC(Cn3nc(C)c4c3CCN(c3cc(C)nc5c3cnn5C)C4)(CC1)CC2)C([2H])([2H])[2H]` [compound 134, 2-(bis(trideuteromethyl)amino)-N-(4-((5-(1,6-dimethyl-1H-pyrazolo[3,4-b]pyridin-4-yl)-3-methyl-4,5,6,7-tetrahydro-1H-pyrazolo[4,3-c]pyridin-1-yl)methyl)bicyclo[2.2.2]octan-1-yl)acetamide], the IC50 worked out at 299 nM.

`Cc1cc(N2CCc3c(c(C)nn3CC34CCC(NC(=O)OC(C)(C)C)(CC3)CC4)C2)c2ccncc2n1` [Compound No. 147, tert-butyl (4-((3-methyl-5-(2-methyl-1,7-naphthyridin-4-yl)-4,5,6,7-tetrahydro-1H-pyrazolo[4,3-c]pyridin-1-yl)methyl)bicyclo[2.2.2]octan-1-yl)carbamate]: the IC50 was 6240 nM.
